Data as given in ChEMBL document CHEMBL1255475, “Mutant prevention concentrations of four carbapenems against gram-negative rods” (2010).
In brackets after ≈: the same amount, converted by molar mass.

How the values were obtained:
Pseudomonas aeruginosa [1] = assay: Ratio of mutant prevention concentration to minimum Inhibitory concentration for Pseudomonas aeruginosa P356; format: functional
Pseudomonas aeruginosa [2] = assay: Ratio of mutant prevention concentration to minimum Inhibitory concentration for Pseudomonas aeruginosa P319; format: functional
Pseudomonas aeruginosa [3] = assay: Ratio of mutant prevention concentration to minimum Inhibitory concentration for Pseudomonas aeruginosa P353; format: functional
Pseudomonas aeruginosa [4] = assay: Ratio of mutant prevention concentration to minimum Inhibitory concentration for Pseudomonas aeruginosa P365; format: functional
Pseudomonas aeruginosa [5] = assay: Ratio of mutant prevention concentration to minimum Inhibitory concentration for Pseudomonas aeruginosa P340; format: functional
Pseudomonas aeruginosa [6] = assay: Ratio of mutant prevention concentration to minimum Inhibitory concentration for Pseudomonas aeruginosa P363; format: functional
Pseudomonas aeruginosa [7] = assay: Ratio of mutant prevention concentration to minimum Inhibitory concentration for Pseudomonas aeruginosa P341; format: functional
Pseudomonas aeruginosa [8] = assay: Ratio of mutant prevention concentration to minimum Inhibitory concentration for Pseudomonas aeruginosa P358; format: functional
Acinetobacter baumannii [9] = assay: Ratio of mutant prevention concentration to minimum Inhibitory concentration for Acinetobacter baumannii A848; format: functional
Acinetobacter baumannii [10] = assay: Ratio of mutant prevention concentration to minimum Inhibitory concentration for Acinetobacter baumannii A864; format: functional
Acinetobacter baumannii [11] = assay: Ratio of mutant prevention concentration to minimum Inhibitory concentration for Acinetobacter baumannii A865; format: functional
Acinetobacter baumannii [12] = assay: Ratio of mutant prevention concentration to minimum Inhibitory concentration for Acinetobacter baumannii A851; format: functional
Acinetobacter baumannii [13] = assay: Ratio of mutant prevention concentration to minimum Inhibitory concentration for Acinetobacter baumannii A912; format: functional
Acinetobacter baumannii [14] = assay: Ratio of mutant prevention concentration to minimum Inhibitory concentration for Acinetobacter baumannii A849; format: functional
Acinetobacter baumannii [15] = assay: Ratio of mutant prevention concentration to minimum Inhibitory concentration for Acinetobacter baumannii A910; format: functional
Acinetobacter baumannii [16] = assay: Ratio of mutant prevention concentration to minimum Inhibitory concentration for Acinetobacter baumannii A928; format: functional
Acinetobacter baumannii [17] = assay: Ratio of mutant prevention concentration to minimum Inhibitory concentration for Acinetobacter baumannii A898; format: functional
Acinetobacter baumannii [18] = assay: Ratio of mutant prevention concentration to minimum Inhibitory concentration for Acinetobacter baumannii A931; format: functional
Acinetobacter baumannii [19] = assay: Antibacterial activity against Acinetobacter baumannii A931 after 24 hrs by agar dilution method; format: functional; settings: A931, 24 h
Acinetobacter baumannii [20] = assay: Antibacterial activity against Acinetobacter baumannii A890 after 24 hrs by agar dilution method; format: functional; settings: A890, 24 h
Acinetobacter baumannii [21] = assay: Antibacterial activity against Acinetobacter baumannii A901 after 24 hrs by agar dilution method; format: functional; settings: A901, 24 h
Escherichia coli [22] = assay: Antibacterial activity against beta-lactamase-positive ESBL-negative Escherichia coli E415 after 24 hrs by agar dilution method; settings: E415, 24 h
Escherichia coli [23] = assay: Antibacterial activity against beta-lactamase-positive ESBL-positive Escherichia coli E459 after 24 hrs by agar dilution method; settings: E459, 24 h
Escherichia coli [24] = assay: Antibacterial activity against beta-lactamase-positive ESBL-negative Escherichia coli E484 after 24 hrs by agar dilution method; format: functional; settings: E484, 24 h
Klebsiella pneumoniae [25] = assay: Antibacterial activity against beta-lactamase-negative Klebsiella pneumoniae E357 after 24 hrs by agar dilution method; format: functional; settings: E357, 24 h
Klebsiella pneumoniae [26] = assay: Antibacterial activity against beta-lactamase-negative Klebsiella pneumoniae E359 after 24 hrs by agar dilution method; format: functional; settings: E359, 24 h
Klebsiella pneumoniae [27] = assay: Antibacterial activity against beta-lactamase-negative Klebsiella pneumoniae E361 after 24 hrs by agar dilution method; format: functional; settings: E361, 24 h
Klebsiella pneumoniae [28] = assay: Antibacterial activity against beta-lactamase-positive ESBL-positive Klebsiella pneumoniae E476 after 24 hrs by agar dilution method; format: functional; settings: E476, 24 h
Klebsiella pneumoniae [29] = assay: Antibacterial activity against beta-lactamase-positive ESBL-positive Klebsiella pneumoniae E475 after 24 hrs by agar dilution method; format: functional; settings: E475, 24 h
Klebsiella pneumoniae [30] = assay: Antibacterial activity against beta-lactamase-positive ESBL-negative Klebsiella pneumoniae E479 after 24 hrs by agar dilution method; format: functional; settings: E479, 24 h
Klebsiella pneumoniae [31] = assay: Antibacterial activity against beta-lactamase-positive ESBL-positive Klebsiella pneumoniae E478 after 24 hrs by agar dilution method; format: functional; settings: E478, 24 h
Klebsiella pneumoniae [32] = assay: Antibacterial activity against beta-lactamase-positive ESBL-negative Klebsiella pneumoniae E481 after 24 hrs by agar dilution method; format: functional; settings: E481, 24 h
Klebsiella pneumoniae [33] = assay: Antibacterial activity against beta-lactamase-negative Klebsiella pneumoniae E417 after 24 hrs by agar dilution method; format: functional; settings: E417, 24 h
Klebsiella pneumoniae [34] = assay: Antibacterial activity against beta-lactamase-positive ESBL-positive Klebsiella pneumoniae E457 after 24 hrs by agar dilution method; format: functional; settings: E457, 24 h
Klebsiella pneumoniae [35] = assay: Antibacterial activity against beta-lactamase-positive ESBL-negative Klebsiella pneumoniae E507 after 24 hrs by agar dilution method; format: functional; settings: E507, 24 h
Klebsiella pneumoniae [36] = assay: Antibacterial activity against beta-lactamase-positive ESBL-negative Klebsiella pneumoniae E511 after 24 hrs by agar dilution method; format: functional; settings: E511, 24 h
Pseudomonas aeruginosa [37] = assay: Antibacterial activity against Pseudomonas aeruginosa P332 after 24 hrs by agar dilution method; settings: P332, 24 h
Pseudomonas aeruginosa [38] = assay: Antibacterial activity against Pseudomonas aeruginosa P356 after 24 hrs by agar dilution method; settings: P356, 24 h
Pseudomonas aeruginosa [39] = assay: Antibacterial activity against Pseudomonas aeruginosa P369 after 24 hrs by agar dilution method; settings: P369, 24 h
Pseudomonas aeruginosa [40] = assay: Antibacterial activity against Pseudomonas aeruginosa P373 after 24 hrs by agar dilution method; settings: P373, 24 h
Pseudomonas aeruginosa [41] = assay: Antibacterial activity against Pseudomonas aeruginosa P319 after 24 hrs by agar dilution method; format: functional; settings: P319, 24 h
Pseudomonas aeruginosa [42] = assay: Antibacterial activity against Pseudomonas aeruginosa P320 after 24 hrs by agar dilution method; settings: P320, 24 h
Pseudomonas aeruginosa [43] = assay: Antibacterial activity against Pseudomonas aeruginosa P322 after 24 hrs by agar dilution method; settings: P322, 24 h
Pseudomonas aeruginosa [44] = assay: Antibacterial activity against Pseudomonas aeruginosa P327 after 24 hrs by agar dilution method; settings: P327, 24 h
Pseudomonas aeruginosa [45] = assay: Antibacterial activity against Pseudomonas aeruginosa P323 after 24 hrs by agar dilution method; settings: P323, 24 h
Pseudomonas aeruginosa [46] = assay: Antibacterial activity against Pseudomonas aeruginosa P337 after 24 hrs by agar dilution method; settings: P337, 24 h
Pseudomonas aeruginosa [47] = assay: Antibacterial activity against Pseudomonas aeruginosa P338 after 24 hrs by agar dilution method; settings: P338, 24 h
Pseudomonas aeruginosa [48] = assay: Antibacterial activity against Pseudomonas aeruginosa P352 after 24 hrs by agar dilution method; format: functional; settings: P352, 24 h
Pseudomonas aeruginosa [49] = assay: Antibacterial activity against Pseudomonas aeruginosa P363 after 24 hrs by agar dilution method; settings: P363, 24 h
Pseudomonas aeruginosa [50] = assay: Antibacterial activity against Pseudomonas aeruginosa P341 after 24 hrs by agar dilution method; settings: P341, 24 h
Pseudomonas aeruginosa [51] = assay: Antibacterial activity against Pseudomonas aeruginosa P376 after 24 hrs by agar dilution method; settings: P376, 24 h
Pseudomonas aeruginosa [52] = assay: Antibacterial activity against Pseudomonas aeruginosa P326 after 24 hrs by agar dilution method; settings: P326, 24 h
Acinetobacter baumannii [53] = assay: Antibacterial activity against Acinetobacter baumannii A892 after 24 hrs by agar dilution method; format: functional; settings: A892, 24 h
Acinetobacter baumannii [54] = assay: Antibacterial activity against Acinetobacter baumannii A896 after 24 hrs by agar dilution method; format: functional; settings: A896, 24 h

## C[C@@H](O)[C@H]1C(=O)N2C(C(=O)O)=C(S[C@@H]3CN[C@H](CNS(N)(=O)=O)C3)[C@H](C)[C@H]12 [DORIPENEM]
Pseudomonas aeruginosa [1]
  Ratio: >16
Pseudomonas aeruginosa [2]
  Ratio: 4
Pseudomonas aeruginosa [3]
  Ratio: 4
Pseudomonas aeruginosa [4]
  Ratio: 16
Pseudomonas aeruginosa [5]
  Ratio: 8
Pseudomonas aeruginosa [6]
  Ratio: 16
Pseudomonas aeruginosa [7]
  Ratio: 16
Pseudomonas aeruginosa [8]
  Ratio: 8
Acinetobacter baumannii [9]
  Ratio: 2
Acinetobacter baumannii [10]
  Ratio: 8
Acinetobacter baumannii [11]
  Ratio: 8
Acinetobacter baumannii [12]
  Ratio: 4
Acinetobacter baumannii [13]
  Ratio: 2
Acinetobacter baumannii [14]
  Ratio: 4
Acinetobacter baumannii [15]
  Ratio: 2
Acinetobacter baumannii [16]
  Ratio: 2
Acinetobacter baumannii [17]
  Ratio: 2
Acinetobacter baumannii [18]
  Ratio: 2

## C[C@@H](O)[C@H]1C(=O)N2C(C(=O)O)=C(SCCNC=N)C[C@H]12 [IMIPENEM ANHYDROUS]
Acinetobacter baumannii [19]
  MIC: 0.5 µg/mL (≈ 1.67 µM)
Acinetobacter baumannii [20]
  MIC: 0.5 µg/mL (≈ 1.67 µM)
Acinetobacter baumannii [21]
  MIC: 2 µg/mL (≈ 6.68 µM)
Escherichia coli [22]
  MIC: 0.125 µg/mL (≈ 0.418 µM)
Escherichia coli [23]
  MIC: 0.25 µg/mL (≈ 0.835 µM)
Escherichia coli [24]
  MIC: 4 µg/mL (≈ 13.4 µM)
Klebsiella pneumoniae [25]
  MIC: 0.25 µg/mL (≈ 0.835 µM)
Klebsiella pneumoniae [26]
  MIC: 0.5 µg/mL (≈ 1.67 µM)
Klebsiella pneumoniae [27]
  MIC: 0.5 µg/mL (≈ 1.67 µM)
Klebsiella pneumoniae [28]
  MIC: 8 µg/mL (≈ 26.7 µM)
Klebsiella pneumoniae [29]
  MIC: 4 µg/mL (≈ 13.4 µM)
Klebsiella pneumoniae [30]
  MIC: 8 µg/mL (≈ 26.7 µM)
Klebsiella pneumoniae [31]
  MIC: 4 µg/mL (≈ 13.4 µM)
Klebsiella pneumoniae [32]
  MIC: 4 µg/mL (≈ 13.4 µM)
Klebsiella pneumoniae [33]
  MIC: 0.5 µg/mL (≈ 1.67 µM)
Klebsiella pneumoniae [34]
  MIC: 0.25 µg/mL (≈ 0.835 µM)
Klebsiella pneumoniae [35]
  MIC: 2 µg/mL (≈ 6.68 µM)
Klebsiella pneumoniae [36]
  MIC: 2 µg/mL (≈ 6.68 µM)
Pseudomonas aeruginosa [37]
  MIC: 1 µg/mL (≈ 3.34 µM)
Pseudomonas aeruginosa [38]
  MIC: 2 µg/mL (≈ 6.68 µM)
Pseudomonas aeruginosa [39]
  MIC: 2 µg/mL (≈ 6.68 µM)
Pseudomonas aeruginosa [40]
  MIC: 2 µg/mL (≈ 6.68 µM)
Pseudomonas aeruginosa [41]
  MIC: 8 µg/mL (≈ 26.7 µM)
Pseudomonas aeruginosa [42]
  MIC: 2 µg/mL (≈ 6.68 µM)
Pseudomonas aeruginosa [43]
  MIC: 4 µg/mL (≈ 13.4 µM)
Pseudomonas aeruginosa [44]
  MIC: 2 µg/mL (≈ 6.68 µM)
Pseudomonas aeruginosa [45]
  MIC: 2 µg/mL (≈ 6.68 µM)
Pseudomonas aeruginosa [46]
  MIC: 2 µg/mL (≈ 6.68 µM)
Pseudomonas aeruginosa [47]
  MIC: 2 µg/mL (≈ 6.68 µM)
Pseudomonas aeruginosa [48]
  MIC: 8 µg/mL (≈ 26.7 µM)
Pseudomonas aeruginosa [49]
  MIC: 2 µg/mL (≈ 6.68 µM)
Pseudomonas aeruginosa [50]
  MIC: 4 µg/mL (≈ 13.4 µM)
Pseudomonas aeruginosa [51]
  MIC: 4 µg/mL (≈ 13.4 µM)
Pseudomonas aeruginosa [52]
  MIC: 16 µg/mL (≈ 53.4 µM)
Acinetobacter baumannii [53]
  MIC: 4 µg/mL (≈ 13.4 µM)
Acinetobacter baumannii [54]
  MIC: 0.25 µg/mL (≈ 0.835 µM)
